Measured values: PubChem BioAssay (NCI)
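96-well plates; 48 h exposure; 5 concentrations. Endpoints by linear interpolation between flanking doses. Not reached: highest tested concentration assigned. At the TGI there is no net growth.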

Tests used:
Test in all cases: NCI anticancer screen, dose series, 48 h
[1] = tested on: 786-0 renal
[2] = tested on: A498 renal
[3] = tested on: A549 NSCLC
[4] = tested on: ACHN renal
[5] = tested on: BT-549 breast
[6] = tested on: COLO 205 colon
[7] = tested on: EKVX NSCLC
[8] = tested on: HCC-2998 colon
[9] = tested on: HCT-116 colon
[10] = tested on: HCT-15 colon
[11] = tested on: HL-60(TB) leukemia
[12] = tested on: HOP-62 NSCLC
[13] = tested on: HS 578T breast
[14] = tested on: HT29 colon
[15] = tested on: IGROV1 ovarian
[16] = tested on: K-562 leukemia
[17] = tested on: KM12 colon
[18] = tested on: LOX IMVI melanoma
[19] = tested on: MALME-3M melanoma
[20] = tested on: MCF7 breast
[21] = tested on: MDA-MB-231 breast
[22] = tested on: MDA-MB-435
[23] = tested on: MDA-N
[24] = tested on: MOLT-4 leukemia
[25] = tested on: NCI-H23 lung
[26] = tested on: NCI-H460 lung
[27] = tested on: NCI-H522 lung
[28] = tested on: NCI/ADR-RES ovarian
[29] = tested on: OVCAR-3 ovarian
[30] = tested on: OVCAR-5 ovarian
[31] = tested on: OVCAR-8 ovarian
[32] = tested on: PC-3 prostate
[33] = tested on: RPMI-8226 leukemia
[34] = tested on: SF-295 CNS
[35] = tested on: SF-539 CNS
[36] = tested on: SK-MEL-2 melanoma
[37] = tested on: SK-MEL-28 melanoma
[38] = tested on: SK-MEL-5 melanoma
[39] = tested on: SN12C renal
[40] = tested on: SNB-19 CNS
[41] = tested on: SR leukemia
[42] = tested on: SW-620 colon
[43] = tested on: T-47D breast
[44] = tested on: TK-10 renal
[45] = tested on: U251 CNS
[46] = tested on: UACC-257 melanoma
[47] = tested on: UACC-62 melanoma
[48] = tested on: UO-31 renal
[49] = tested on: CAKI-1 renal
[50] = tested on: CCRF-CEM leukemia
[51] = tested on: DU-145 prostate
[52] = tested on: HOP-92 NSCLC
[53] = tested on: M14 melanoma
[54] = tested on: NCI-H226 lung
[55] = tested on: OVCAR-4 ovarian
[56] = tested on: RXF 393 renal
[57] = tested on: SF-268 CNS
[58] = tested on: SK-OV-3 ovarian
[59] = tested on: SNB-75 CNS

N[C@@H](CCC(=O)NC(Cc1ccccc1)C(=O)NCP(=O)(O)O)C(=O)O (stereo partly specified)
TGI [1]: > 100 µM
TGI [2]: > 100 µM
TGI [3]: > 100 µM
TGI [4]: > 100 µM
TGI [5]: > 100 µM
TGI [6]: > 100 µM
TGI [7]: > 100 µM
TGI [8]: > 100 µM
TGI [9]: > 100 µM
TGI [10]: > 100 µM
TGI [11]: > 100 µM
TGI [12]: > 100 µM
TGI [13]: > 100 µM
TGI [14]: > 100 µM
TGI [15]: > 100 µM
TGI [16]: > 100 µM
TGI [17]: > 100 µM
TGI [18]: > 100 µM
TGI [19]: > 100 µM
TGI [20]: > 100 µM
TGI [21]: > 100 µM
TGI [22]: > 100 µM
TGI [23]: > 100 µM
TGI [24]: > 100 µM
TGI [25]: > 100 µM
TGI [26]: > 100 µM
TGI [27]: > 100 µM
TGI [28]: > 100 µM
TGI [29]: > 100 µM
TGI [30]: > 100 µM
TGI [31]: > 100 µM
TGI [32]: > 100 µM
TGI [33]: > 100 µM
TGI [34]: > 100 µM
TGI [35]: > 100 µM
TGI [36]: > 100 µM
TGI [37]: > 100 µM
TGI [38]: > 100 µM
TGI [39]: > 100 µM
TGI [40]: > 100 µM
TGI [41]: > 100 µM
TGI [42]: > 100 µM
TGI [43]: > 100 µM
TGI [44]: > 100 µM
TGI [45]: > 100 µM
TGI [46]: > 100 µM
TGI [47]: > 100 µM
TGI [48]: > 100 µM

COc1cc2c(cc1O)C1Cc3ccc(OC)c(O)c3C[N+]1(C)CC2 (stereo unspecified)
TGI [1]: > 100 µM
TGI [2]: > 100 µM
TGI [3]: > 100 µM
TGI [4]: > 100 µM
TGI [5]: > 100 µM
TGI [49]: > 100 µM
TGI [50]: > 100 µM
TGI [6]: > 100 µM
TGI [51]: > 100 µM
TGI [7]: > 100 µM
TGI [8]: > 100 µM
TGI [9]: > 100 µM
TGI [10]: > 100 µM
TGI [11]: > 100 µM
TGI [12]: > 100 µM
TGI [52]: > 100 µM
TGI [13]: > 100 µM
TGI [14]: > 100 µM
TGI [15]: > 100 µM
TGI [16]: > 100 µM
TGI [17]: > 100 µM
TGI [18]: > 100 µM
TGI [53]: > 100 µM
TGI [19]: > 100 µM
TGI [20]: > 100 µM
TGI [21]: > 100 µM
TGI [22]: > 100 µM
TGI [23]: > 100 µM
TGI [24]: > 100 µM
TGI [54]: > 100 µM
TGI [25]: > 100 µM
TGI [26]: > 100 µM
TGI [28]: > 100 µM
TGI [55]: > 100 µM
TGI [30]: > 100 µM
TGI [31]: > 100 µM
TGI [32]: > 100 µM
TGI [33]: > 100 µM
TGI [56]: > 100 µM
TGI [57]: > 100 µM
TGI [34]: > 100 µM
TGI [35]: > 100 µM
TGI [36]: > 100 µM
TGI [37]: > 100 µM
TGI [38]: > 100 µM
TGI [58]: > 100 µM
TGI [39]: > 100 µM
TGI [40]: > 100 µM
TGI [59]: > 100 µM
TGI [42]: > 100 µM
TGI [43]: > 100 µM
TGI [44]: > 100 µM
TGI [45]: > 100 µM
TGI [47]: > 100 µM
TGI [48]: > 100 µM

CCN1CC2(C)CCC(OC)C34C5CC6CCC(O)(C5C(=O)O6)C(C(O)C23)C14 (stereo unspecified)
TGI [1]: > 100 µM
TGI [2]: > 100 µM
TGI [3]: > 100 µM
TGI [4]: > 100 µM
TGI [5]: > 100 µM
TGI [49]: > 100 µM
TGI [50]: > 100 µM
TGI [6]: > 100 µM
TGI [51]: > 100 µM
TGI [7]: > 100 µM
TGI [9]: > 100 µM
TGI [10]: > 100 µM
TGI [11]: > 100 µM
TGI [12]: > 100 µM
TGI [52]: > 100 µM
TGI [13]: > 100 µM
TGI [14]: > 100 µM
TGI [15]: > 100 µM
TGI [16]: > 100 µM
TGI [17]: > 100 µM
TGI [18]: > 100 µM
TGI [53]: > 100 µM
TGI [19]: > 100 µM
TGI [20]: > 100 µM
TGI [21]: > 100 µM
TGI [22]: > 100 µM
TGI [23]: > 100 µM
TGI [24]: > 100 µM
TGI [25]: > 100 µM
TGI [26]: > 100 µM
TGI [27]: > 100 µM
TGI [28]: > 100 µM
TGI [29]: > 100 µM
TGI [55]: > 100 µM
TGI [30]: > 100 µM
TGI [31]: > 100 µM
TGI [32]: > 100 µM
TGI [33]: > 100 µM
TGI [56]: > 100 µM
TGI [57]: > 100 µM
TGI [34]: > 100 µM
TGI [35]: > 100 µM
TGI [36]: > 100 µM
TGI [37]: > 100 µM
TGI [38]: > 100 µM
TGI [58]: > 100 µM
TGI [40]: > 100 µM
TGI [59]: > 100 µM
TGI [42]: > 100 µM
TGI [43]: > 100 µM
TGI [44]: > 100 µM
TGI [45]: > 100 µM
TGI [46]: > 100 µM
TGI [47]: > 100 µM
TGI [48]: > 100 µM

O=c1c(-c2ccc3c(c2)OCO3)coc2c3c(ccc12)OCO3
TGI [1]: 35.5 µM
TGI [2]: 83.1 µM
TGI [3]: > 100 µM
TGI [4]: 38.8 µM
TGI [5]: 32.6 µM
TGI [49]: > 100 µM
TGI [50]: > 100 µM
TGI [6]: > 100 µM
TGI [51]: > 100 µM
TGI [7]: > 100 µM
TGI [8]: > 100 µM
TGI [9]: > 100 µM
TGI [10]: > 100 µM
TGI [11]: > 100 µM
TGI [12]: 38.2 µM
TGI [52]: 38.5 µM
TGI [13]: 59.4 µM
TGI [15]: 59.7 µM
TGI [16]: > 100 µM
TGI [17]: > 100 µM
TGI [18]: > 100 µM
TGI [53]: > 100 µM
TGI [20]: 33.7 µM
TGI [21]: 41 µM
TGI [22]: > 100 µM
TGI [23]: > 100 µM
TGI [24]: > 100 µM
TGI [25]: 40 µM
TGI [26]: 32.1 µM
TGI [27]: 37.5 µM
TGI [29]: > 100 µM
TGI [55]: 70.6 µM
TGI [30]: > 100 µM
TGI [32]: > 100 µM
TGI [33]: > 100 µM
TGI [57]: 43.3 µM
TGI [34]: 37.1 µM
TGI [35]: 58.7 µM
TGI [36]: > 100 µM
TGI [37]: > 100 µM
TGI [38]: > 100 µM
TGI [58]: 40.9 µM
TGI [39]: > 100 µM
TGI [40]: 44.9 µM
TGI [59]: 49.7 µM
TGI [41]: > 100 µM
TGI [42]: > 100 µM
TGI [43]: > 100 µM
TGI [44]: 36.8 µM
TGI [45]: > 100 µM
TGI [46]: > 100 µM
TGI [47]: > 100 µM
TGI [48]: > 100 µM
